ChEMBL document CHEMBL4732147, “A novel [5.2.1]bicyclic amine is a potent analgesic without µ opioid activity” (Bioorg Med Chem Lett, 2021)
Activity calls are given as the source filed them. No cut-off for these calls is given here.

Tests used:
Mus musculus [1] = experiment: Analgesic activity in sc dosed ddY mouse assessed as protection against acetic acid-induced writhing; type: functional
Mus musculus [2] = experiment: Analgesic activity in ddY mouse assessed as protection against acetic acid-induced writhing at 30 mg/kg, sc relative to control; type: functional
Mu-type opioid receptor [3] = biological target: T1, Mu-type opioid receptor (Homo sapiens, UniProt P35372); experiment: Agonist activity at human Gi/G0-coupled mu opioid receptor expressed in human U2OS cells co-expressing EA-tagged beta-arrestin2 assessed as beta-arrestin 2 recruitment by PathHunter assay; type: cell-based
T1 sequence (P35372 whole entry): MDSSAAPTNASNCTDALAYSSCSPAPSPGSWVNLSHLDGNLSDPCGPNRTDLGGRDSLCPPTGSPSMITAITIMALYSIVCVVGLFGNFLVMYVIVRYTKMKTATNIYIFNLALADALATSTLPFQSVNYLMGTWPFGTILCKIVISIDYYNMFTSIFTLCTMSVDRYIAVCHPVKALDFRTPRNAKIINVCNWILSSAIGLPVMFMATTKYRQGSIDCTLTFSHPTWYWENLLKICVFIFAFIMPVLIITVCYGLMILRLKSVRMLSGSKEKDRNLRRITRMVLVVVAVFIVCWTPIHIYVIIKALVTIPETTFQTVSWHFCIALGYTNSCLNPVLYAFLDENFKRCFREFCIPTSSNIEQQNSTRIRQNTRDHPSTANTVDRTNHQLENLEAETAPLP

[4] = Plasma concentration in ddY mouse at 30 mg/kg, sc; type: ADME, organism-based; settings: in vivo; note: time not given here
[5] = Drug concentration in ddY mouse brain at 30 mg/kg, sc; type: ADME, organism-based; settings: in vivo, read-out: Ct; note: time not given here
Mus musculus [6] = experiment: Analgesic activity in sc dosed ddY mouse assessed as tail flicking; type: functional
Mus musculus [7] = experiment: Analgesic activity in ddY mouse assessed as tail flicking at 30 mg/kg, sc relative to control; type: functional
[8] = Toxicity in sc dosed ddY mouse assessed as effect on locomotor activity; type: organism-based; settings: in vivo
Cytochrome P450 = experiment: Metabolic stability in human cytochrome P450 assessed as parent compound remaining; type: ADME, protein assay; note: time not given here
[9] = Metabolic stability in mouse cytochrome P450 assessed as parent compound remaining; type: ADME; note: time not given here
[10] = Lipophilicity, log D of compound; type: physicochemical; settings: octanol/water
[11] = Permeability of compound by PAMPA; type: ADME
[12] = Protein binding in mouse; type: ADME, organism-based; settings: in vivo, read-out: PB (converted)
[13] = Half life in mouse at 10 mg/kg; type: ADME, organism-based; settings: in vivo
[14] = Clearance in mouse at 10 mg/kg; type: ADME, organism-based; settings: in vivo
[15] = Apparent clearance in mouse at 10 mg/kg; type: ADME, organism-based; settings: in vivo
[16] = Oral bioavailability in mouse at 10 mg/kg; type: ADME, organism-based; settings: in vivo
[17] = Drug concentration in ddY mouse brain at 10 mg/kg; type: ADME, organism-based; settings: in vivo, read-out: Ct; note: time not given here
Mu-type opioid receptor [18] = biological target: T1, Mu-type opioid receptor; experiment: Binding affinity to mu opioid receptor (unknown origin)
[19] = Toxicity in ddY mouse assessed as hyperactivity at 10 mg/kg, sc; type: organism-based; settings: in vivo
Mus musculus [20] = experiment: Analgesic activity in ddY mouse assessed as protection against acetic acid-induced writhing at 3 mg/kg, sc relative to control; type: functional
Mus musculus [21] = experiment: Analgesic activity in ddY mouse assessed as tail flicking at 300 mg/kg, sc; type: functional, organism-based

Structure (SMILES) | ED50 (Mus musculus [1]) | Activity (Mus musculus [2]) | EC50 (Mu-type opioid receptor [3]) | concentration [4] | concentration [5] | ED50 (Mus musculus [6]) | MPE (Mus musculus [7]) | other results
COc1ccc2c(c1)CN1CC[C@@](c3ccccc3)(C1)N(C)C2 | < 30 mg/kg | 59% | > 20 µM | 2.2 µM | 24.8 µM | > 30 mg/kg | 36% | –
CN1Cc2ccccc2CN2CC[C@@]1(c1ccccc1)C2 | 2 mg/kg | – | > 20 µM | 0.7 µM | – | 17 mg/kg | – | ID50 [8]: 15 mg/kg; Stabilty (Cytochrome P450): 72%; Stabilty [9]: 1%; logD [10]: 3; permeability [11]: Permeable; fraction unbound [12]: 0.16; half-life [13]: 1.06 h; clearance [14]: 261 mL/min/kg; CL/F [15]: 264 mL/min/kg; bioavailability [16]: 55.2%; concentration [17]: 16.3 µM; Ki (Mu-type opioid receptor [18]): 1.33 µM
CN1Cc2ccc(O)cc2CN2CC[C@@]1(c1ccccc1)C2 | – | 100% | 2.4 µM | 1.5 µM | 19.4 µM | – | – | –
COc1cccc2c1CN(C)[C@@]1(c3ccccc3)CCN(C2)C1 | > 30 mg/kg | 9.2% | > 20 µM | 13.4 µM | 6.2 µM | – | – | –
COc1cccc2c1CN1CC[C@@](c3ccccc3)(C1)N(C)C2 | < 30 mg/kg | 100% | > 20 µM | 3.1 µM | 31.1 µM | 16 mg/kg | – | ID50 [8]: 19 mg/kg
OCCN1Cc2ccccc2CN2CC[C@@]1(c1ccccc1)C2 | 18.2 mg/kg | – | > 20 µM | 2.7 µM | 21.8 µM | > 30 mg/kg | 18% | ID50 [8]: 37 mg/kg
CCN1Cc2ccccc2CN2CC[C@@]1(c1ccccc1)C2 | < 30 mg/kg | 100% | 4 µM | 1.8 µM | 33.3 µM | > 10 mg/kg | 43% | –
O=C1N[C@]2(c3ccccc3)CCN(Cc3ccccc31)C2 | < 30 mg/kg | 23% | – | 3.5 µM | 7.7 µM | – | – | –
CN1Cc2ccccc2CN2CC[C@]1(c1ccccc1)C2 | 1 mg/kg | – | 3 µM | 0.75 µM | – | 1.7 mg/kg | – | Activity [19]: Toxic; concentration [17]: 15.6 µM
CN1Cc2cc(O)ccc2CN2CC[C@@]1(c1ccccc1)C2 | 4.6 mg/kg | – | > 20 µM | 0.74 µM | 8.33 µM | 6.2 mg/kg | – | ID50 [8]: 5.2 mg/kg
CCCN1Cc2ccccc2CN2CCC1(c1ccccc1)C2 (racemic) | < 3 mg/kg | – | 0.7 µM | – | – | – | – | Activity (Mus musculus [20]): 100%
CN1Cc2c(O)cccc2CN2CC[C@@]1(c1ccccc1)C2 | < 30 mg/kg | 56% | > 20 µM | 1.9 µM | 18.9 µM | – | – | –
COc1ccc2c(c1)CN(C)[C@@]1(c3ccccc3)CCN(C2)C1 | 11 mg/kg | – | > 20 µM | 0.73 µM | 6.9 µM | 18 mg/kg | – | ID50 [8]: 14 mg/kg
CN1Cc2cccc(O)c2CN2CC[C@@]1(c1ccccc1)C2 | < 30 mg/kg | 93% | > 20 µM | 0.77 µM | 13 µM | > 30 mg/kg | 6% | –
CC(=O)N1Cc2ccccc2CN2CC[C@@]1(c1ccccc1)C2 | 31 mg/kg | – | > 20 µM | 7.8 µM | 6.3 µM | > 30 mg/kg | 4.9% | –
CN(C)C(=O)CN1Cc2ccccc2CN2CC[C@@]1(c1ccccc1)C2 | > 30 mg/kg | 52% | > 20 µM | 4 µM | 5.3 µM | – | – | –
CCC(=O)N1Cc2ccccc2CN2CC[C@@]1(c1ccccc1)C2 | ≥ 30 mg/kg | 87% | > 20 µM | 5 µM | 8.4 µM | – | – | –
O=C1N[C@@]2(c3ccccc3)CCN(Cc3ccccc31)C2 | > 30 mg/kg | 23% | – | 4.4 µM | 11.2 µM | – | – | Activity (Mus musculus [21]): inactive
c1ccc([C@@]23CCN(Cc4ccccc4CN2)C3)cc1 | < 30 mg/kg | 72% | > 20 µM | 2.2 µM | 49.2 µM | > 30 mg/kg | 19% | –
